# Measurements as given in patent US9877923B2, “Process for preparing therapeutic nanoparticles” (Pfizer Inc., priority 2012, dated 2018).
# Experiments:
# [1] = Drug recovery during in vitro release experiments; assay type: physicochemical; settings: after 4 hr incubation at 37° C.
# Text: Release data of 24 hr and 48 hr, in Table 4, are underlined because the drug recovered at these two time points show significant degradation (data are shown in the bottom of the table in the Drug Recovery section).
# [2] = Dasatinib solubility in selected solvents with or without acid doping (by HPLC); settings: organic solvent or mixture
structure (smiles),measurement,setting,value
"Cc1nc(Nc2ncc(C(=O)Nc3c(C)cccc3Cl)s2)cc(N2CCN(CCO)CC2)n1 [Dasatinib, dasatinib]",stability of dasatinib during incubation,[1],degradation of dasatinib is observed
same,solubility,[2]; 1% TFA in benzyl alcohol,56.5 mg/mL
same,solubility,[2]; 2% TFA in benzyl alcohol,103 mg/mL
same,solubility,[2]; 3% TFA in 7.5% water in benzyl alcohol,157 mg/mL
same,solubility,[2]; 3% TFA in benzyl alcohol,141 mg/mL
same,solubility,[2]; 7.5% water in benzyl alcohol,32.8 mg/mL
